{"source": "PubChem BioAssay (NCI)", "assay_in_all_cases": "NCI-60 cell line screen, 48 h", "key": {"[1]": {"test_system": "PC-3 prostate"}, "[2]": {"test_system": "NCI-H522 lung"}, "[3]": {"test_system": "SF-268 CNS"}, "[4]": {"test_system": "OVCAR-3 ovarian"}, "[5]": {"test_system": "HOP-62 NSCLC"}, "[6]": {"test_system": "A498 renal"}, "[7]": {"test_system": "U251 CNS"}, "[8]": {"test_system": "HCC-2998 colon"}, "[9]": {"test_system": "SNB-75 CNS"}, "[10]": {"test_system": "SR leukemia"}}, "note": "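Cells were grown in 96-well plates and exposed to each compound for 48 hours at five concentrations; endpoints were interpolated linearly between bracketing concentrations, or set to the highest concentration if not reached. Abbreviation: GI50, concentration required for 50% inhibition of growth. Definition used: TGI = concentration required for complete inhibition of growth.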", "data": [{"smiles": "C#CC(=O)OCC#CCOC(=O)C#C", "values": [{"measurement": "TGI", "setting": "[1]", "value": "> 100", "unit": "µM"}, {"measurement": "TGI", "setting": "[2]", "value": 9.81, "unit": "µM"}, {"measurement": "TGI", "setting": "[3]", "value": "> 100", "unit": "µM"}, {"measurement": "TGI", "setting": "[4]", "value": 34.7, "unit": "µM"}, {"measurement": "TGI", "setting": "[5]", "value": 46.1, "unit": "µM"}, {"measurement": "TGI", "setting": "[6]", "value": "> 100", "unit": "µM"}, {"measurement": "TGI", "setting": "[7]", "value": 35.6, "unit": "µM"}, {"measurement": "TGI", "setting": "[8]", "value": 39.6, "unit": "µM"}]}, {"smiles": "CN(C)CCOc1ccc(-c2cc(-c3ccc4c(c3)CC/C4=N\\O)c(-c3ccncc3)o2)cc1", "values": [{"measurement": "GI50", "setting": "[1]", "value": 4.16, "unit": "µM"}, {"measurement": "TGI", "setting": "[1]", "value": 8.22, "unit": "µM"}, {"measurement": "GI50", "setting": "[2]", "value": 3.73, "unit": "µM"}, {"measurement": "TGI", "setting": "[2]", "value": 8.02, "unit": "µM"}, {"measurement": "GI50", "setting": "[3]", "value": 4.72, "unit": "µM"}, {"measurement": "TGI", "setting": "[3]", "value": 9.94, "unit": "µM"}, {"measurement": "GI50", "setting": "[4]", "value": 4.38, "unit": "µM"}, {"measurement": "TGI", "setting": "[4]", "value": 8.16, "unit": "µM"}, {"measurement": "GI50", "setting": "[5]", "value": 3.84, "unit": "µM"}, {"measurement": "TGI", "setting": "[5]", "value": 7.92, "unit": "µM"}, {"measurement": "GI50", "setting": "[9]", "value": 1.27, "unit": "µM"}, {"measurement": "TGI", "setting": "[9]", "value": 6, "unit": "µM"}, {"measurement": "GI50", "setting": "[6]", "value": 4.22, "unit": "µM"}, {"measurement": "TGI", "setting": "[6]", "value": 8.17, "unit": "µM"}, {"measurement": "GI50", "setting": "[7]", "value": 2.41, "unit": "µM"}, {"measurement": "TGI", "setting": "[7]", "value": 5.55, "unit": "µM"}, {"measurement": "GI50", "setting": "[8]", "value": 5.5, "unit": "µM"}, {"measurement": "TGI", "setting": "[8]", "value": 9.5, "unit": "µM"}]}, {"smiles": "Cc1cc(NS(=O)(=O)c2ccc(Nc3c4ccccc4nc4c(C(=O)Nc5ccc(S(=O)(=O)N=C(N)N)cc5)ccc(Cl)c34)cc2)no1", "values": [{"measurement": "TGI", "setting": "[2]", "value": 33.2, "unit": "µM"}, {"measurement": "TGI", "setting": "[10]", "value": 61, "unit": "µM"}, {"measurement": "TGI", "setting": "[3]", "value": 63.2, "unit": "µM"}, {"measurement": "TGI", "setting": "[4]", "value": 63.2, "unit": "µM"}, {"measurement": "TGI", "setting": "[5]", "value": 77.9, "unit": "µM"}, {"measurement": "TGI", "setting": "[9]", "value": 73.2, "unit": "µM"}, {"measurement": "TGI", "setting": "[6]", "value": "> 100", "unit": "µM"}, {"measurement": "TGI", "setting": "[7]", "value": "> 100", "unit": "µM"}, {"measurement": "TGI", "setting": "[8]", "value": "> 100", "unit": "µM"}]}, {"smiles": "Brc1ccc(C2SCc3nc4ccccc4n32)cc1", "note": "(stereo not given)", "values": [{"measurement": "TGI", "setting": "[2]", "value": 12.4, "unit": "µM"}, {"measurement": "TGI", "setting": "[10]", "value": 28.3, "unit": "µM"}, {"measurement": "TGI", "setting": "[3]", "value": 32.9, "unit": "µM"}, {"measurement": "TGI", "setting": "[4]", "value": 17, "unit": "µM"}, {"measurement": "TGI", "setting": "[5]", "value": 22.4, "unit": "µM"}, {"measurement": "TGI", "setting": "[9]", "value": 0.745, "unit": "µM"}, {"measurement": "TGI", "setting": "[7]", "value": 25.2, "unit": "µM"}]}, {"smiles": "Clc1ccc(C2=NOC3C4CCC(C4)C23)cc1", "note": "(stereo not given)", "values": [{"measurement": "TGI", "setting": "[2]", "value": "> 100", "unit": "µM"}, {"measurement": "TGI", "setting": "[10]", "value": "> 100", "unit": "µM"}, {"measurement": "TGI", "setting": "[3]", "value": "> 100", "unit": "µM"}, {"measurement": "TGI", "setting": "[4]", "value": "> 100", "unit": "µM"}, {"measurement": "TGI", "setting": "[5]", "value": "> 100", "unit": "µM"}, {"measurement": "TGI", "setting": "[9]", "value": "> 100", "unit": "µM"}, {"measurement": "TGI", "setting": "[6]", "value": "> 100", "unit": "µM"}, {"measurement": "TGI", "setting": "[7]", "value": "> 100", "unit": "µM"}, {"measurement": "TGI", "setting": "[8]", "value": "> 100", "unit": "µM"}]}, {"smiles": "COc1cc2ccc(CC(N)=O)cc2cc1OC", "values": [{"measurement": "TGI", "setting": "[2]", "value": "> 100", "unit": "µM"}, {"measurement": "TGI", "setting": "[3]", "value": "> 100", "unit": "µM"}, {"measurement": "TGI", "setting": "[4]", "value": "> 100", "unit": "µM"}, {"measurement": "TGI", "setting": "[5]", "value": "> 100", "unit": "µM"}, {"measurement": "TGI", "setting": "[9]", "value": "> 100", "unit": "µM"}, {"measurement": "TGI", "setting": "[7]", "value": "> 100", "unit": "µM"}]}, {"smiles": "CCCCCCCCCCCCCCNCC(OCC)OCC", "values": [{"measurement": "TGI", "setting": "[2]", "value": 19.9, "unit": "µM"}, {"measurement": "TGI", "setting": "[3]", "value": 36.7, "unit": "µM"}, {"measurement": "TGI", "setting": "[4]", "value": 33.7, "unit": "µM"}, {"measurement": "TGI", "setting": "[5]", "value": 31.6, "unit": "µM"}, {"measurement": "TGI", "setting": "[9]", "value": 23, "unit": "µM"}, {"measurement": "TGI", "setting": "[6]", "value": 28.5, "unit": "µM"}, {"measurement": "TGI", "setting": "[7]", "value": 30.5, "unit": "µM"}, {"measurement": "TGI", "setting": "[8]", "value": 27.3, "unit": "µM"}]}, {"smiles": "Clc1cccc2c1OCC1C(c3ccccc3)=NN(c3ccccc3)C21", "note": "(stereo not given)", "values": [{"measurement": "TGI", "setting": "[2]", "value": "> 100", "unit": "µM"}, {"measurement": "TGI", "setting": "[3]", "value": "> 100", "unit": "µM"}, {"measurement": "TGI", "setting": "[4]", "value": "> 100", "unit": "µM"}, {"measurement": "TGI", "setting": "[5]", "value": "> 100", "unit": "µM"}, {"measurement": "TGI", "setting": "[9]", "value": "> 100", "unit": "µM"}, {"measurement": "TGI", "setting": "[6]", "value": "> 100", "unit": "µM"}, {"measurement": "TGI", "setting": "[7]", "value": "> 100", "unit": "µM"}, {"measurement": "TGI", "setting": "[8]", "value": "> 100", "unit": "µM"}]}, {"smiles": "O=S(=O)(NCCO)c1cc[c]([Sb](=[O])([OH])[OH])cc1", "values": [{"measurement": "GI50", "setting": "[1]", "value": "> 100", "unit": "µM"}, {"measurement": "TGI", "setting": "[1]", "value": "> 100", "unit": "µM"}, {"measurement": "GI50", "setting": "[2]", "value": "> 100", "unit": "µM"}, {"measurement": "TGI", "setting": "[2]", "value": "> 100", "unit": "µM"}, {"measurement": "GI50", "setting": "[10]", "value": "> 100", "unit": "µM"}, {"measurement": "TGI", "setting": "[10]", "value": "> 100", "unit": "µM"}, {"measurement": "GI50", "setting": "[3]", "value": "> 100", "unit": "µM"}, {"measurement": "TGI", "setting": "[3]", "value": "> 100", "unit": "µM"}, {"measurement": "GI50", "setting": "[4]", "value": "> 100", "unit": "µM"}, {"measurement": "TGI", "setting": "[4]", "value": "> 100", "unit": "µM"}, {"measurement": "GI50", "setting": "[5]", "value": "> 100", "unit": "µM"}, {"measurement": "TGI", "setting": "[5]", "value": "> 100", "unit": "µM"}, {"measurement": "GI50", "setting": "[6]", "value": "> 100", "unit": "µM"}, {"measurement": "TGI", "setting": "[6]", "value": "> 100", "unit": "µM"}, {"measurement": "GI50", "setting": "[7]", "value": "> 100", "unit": "µM"}, {"measurement": "TGI", "setting": "[7]", "value": "> 100", "unit": "µM"}, {"measurement": "GI50", "setting": "[8]", "value": "> 100", "unit": "µM"}, {"measurement": "TGI", "setting": "[8]", "value": "> 100", "unit": "µM"}]}, {"smiles": "Cc1ccc2c(CC(=O)O)cc(=O)oc2c1", "values": [{"measurement": "TGI", "setting": "[2]", "value": "> 100", "unit": "µM"}, {"measurement": "TGI", "setting": "[3]", "value": "> 100", "unit": "µM"}, {"measurement": "TGI", "setting": "[4]", "value": "> 100", "unit": "µM"}, {"measurement": "TGI", "setting": "[5]", "value": "> 100", "unit": "µM"}, {"measurement": "TGI", "setting": "[9]", "value": "> 100", "unit": "µM"}, {"measurement": "TGI", "setting": "[6]", "value": "> 100", "unit": "µM"}, {"measurement": "TGI", "setting": "[7]", "value": "> 100", "unit": "µM"}, {"measurement": "TGI", "setting": "[8]", "value": "> 100", "unit": "µM"}]}, {"smiles": "COc1ccc(C#CC2=C(c3cc(OC)c(OC)c(OC)c3)C(=O)OC2)cc1", "values": [{"measurement": "GI50", "setting": "[1]", "value": 2.95, "unit": "µM"}, {"measurement": "TGI", "setting": "[1]", "value": "> 50", "unit": "µM"}, {"measurement": "GI50", "setting": "[2]", "value": 8.6, "unit": "µM"}, {"measurement": "TGI", "setting": "[2]", "value": "> 50", "unit": "µM"}, {"measurement": "GI50", "setting": "[10]", "value": 2.09, "unit": "µM"}, {"measurement": "TGI", "setting": "[10]", "value": "> 50", "unit": "µM"}, {"measurement": "GI50", "setting": "[3]", "value": 2.23, "unit": "µM"}, {"measurement": "TGI", "setting": "[3]", "value": "> 50", "unit": "µM"}, {"measurement": "GI50", "setting": "[4]", "value": 1.59, "unit": "µM"}, {"measurement": "TGI", "setting": "[4]", "value": 10.3, "unit": "µM"}, {"measurement": "GI50", "setting": "[9]", "value": 1.33, "unit": "µM"}, {"measurement": "TGI", "setting": "[9]", "value": "> 50", "unit": "µM"}, {"measurement": "GI50", "setting": "[6]", "value": 8.21, "unit": "µM"}, {"measurement": "TGI", "setting": "[6]", "value": 30.1, "unit": "µM"}, {"measurement": "GI50", "setting": "[7]", "value": 1.64, "unit": "µM"}, {"measurement": "TGI", "setting": "[7]", "value": 6.74, "unit": "µM"}]}]}
